The values below come from patent publication US20230183193A1, “4-DIFLUOROMETHYL BENZOYL AMIDES WITH HERBICIDAL ACTION” (BAYER CROPSCIENCE AKTIENGESELLSCHAFT, priority 2017, published 2023).

The structures appear in SMILES notation.

What all share (type): in vivo
The test system of test [1] is Stellaria media. Briefly: Post-emergence herbicidal action, STEME. The note with it: 80 g/ha, Table D. The method, then: (§1) Seeds of monocotyledonous and dicotyledonous weed and crop plants are laid out in sandy loam soil in wood-fiber pots, covered with soil and cultivated in a greenhouse under good growth conditions. 2 to 3 weeks after sowing, the test plants are treated at the one-leaf stage. The compounds of the invention, formulated in the form of wettable powders (WP) or as emulsion concentrates (EC), are then sprayed onto the green parts of the plants in the form of an aqueous suspension or emulsion at a water application rate equating to […], with addition of 0.2% wetting agent. After the test plants have been left to stand in the greenhouse under optimal growth conditions for about 3 weeks, the action of the preparations is assessed visually in comparison to untreated controls (herbicidal action in percent (%): 100% activity=the plants have died, 0% activity=like control plants). […] At the same time, inventive compounds leave Gramineae crops such as barley, wheat, rye, millet/sorghum, corn or rice virtually undamaged when applied post-emergence, even at high active compound dosages. In addition, some substances are also harmless to dicotyledonous crops such as soya, cotton, oilseed rape, sugar beet or potatoes. Some of the compounds according to the invention have high selectivity and are therefore suitable for controlling unwanted vegetation in agricultural crops by the post-emergence method. The data of Tables C and D below illustrate, in an exemplary manner, the […] herbicidal action of the compounds according to the invention, the herbicidal activity being stated in percent.
(§2) For comparison, the herbicidal activity of numerous compounds according to the invention was tested with the structurally closest compounds known from the documents WO 2011/035874, WO 2012/028579 and WO 2012/126932, by the pre- and post-emergence method.

Test [2] concerns Amaranthus retroflexus. Briefly: Post-emergence herbicidal action, AMARE. As to conditions: 80 g/ha, Table D. The method, then: as §1, §2
The subject of test [3] is Pharbitis purpureum. Put plainly: Post-emergence herbicidal action, PHBPU. As to conditions: 80 g/ha, Table D. The method, then: as §1, §2
In test [4] the test system is Abutilon theophrasti. Briefly: Pre-emergence herbicidal action, ABUTH. As to conditions: dosage 320 g/ha, scored visually after 3 weeks vs untreated controls.
Excerpt: (§3) 1. Pre-Emergence Herbicidal Action Against Harmful Plants Seeds of monocotyledonous and dicotyledonous weed plants and crop plants are laid out in sandy loam soil in wood-fiber pots and covered with soil. The compounds of the invention, formulated in the form of wettable powders (WP) or as emulsion concentrates (EC), are then applied to the surface of the covering soil in the form of an aqueous suspension or emulsion at a water application rate equating to […], with addition of 0.2% wetting agent. After the treatment, the pots are placed in a greenhouse and kept under good growth conditions for the trial plants. The damage to the test plants is scored visually after a test period of 3 weeks by comparison with untreated controls (herbicidal activity in percent (%): 100% activity=the plants have died, 0% activity=like control plants).
as §2

Test [5] concerns Amaranthus retroflexus. Briefly: Pre-emergence herbicidal action, AMARE. The note with it: dosage 320 g/ha, scored visually after 3 weeks vs untreated controls.
Excerpt: as §3, §2

Test [6] has as its system Matricaria inodora. Briefly: Pre-emergence herbicidal action, MATIN. The note with it: dosage 320 g/ha, scored visually after 3 weeks vs untreated controls.
Excerpt: as §3, §2

The test system of test [7] is Stellaria media. Briefly: Pre-emergence herbicidal action, STEME. The note with it: dosage 320 g/ha, scored visually after 3 weeks vs untreated controls.
Excerpt: as §3, §2

In test [8] the test system is Viola tricolor. Put plainly: Pre-emergence herbicidal action, VIOTR. As to conditions: dosage 320 g/ha, scored visually after 3 weeks vs untreated controls.
Excerpt: as §3, §2

For test [9], the system named is Setaria viridis. Briefly: Pre-emergence herbicidal action, SETVI. The note with it: dosage 320 g/ha, scored visually after 3 weeks vs untreated controls.
Excerpt: as §3, §2

Test [10] deals with Viola tricolor. Put plainly: Post-emergence herbicidal action, VIOTR. As to conditions: 80 g/ha, Table D. On the procedure: as §1, §2
In test [11] the test system is Abutilon theophrasti. Briefly: Post-emergence herbicidal action, ABUTH. The note with it: 80 g/ha, Table D. On the procedure: as §1, §2
Test [12] has as its system Cyperus serotinus. Put plainly: Pre-emergence herbicidal action, CYPES. As to conditions: dosage 320 g/ha, scored visually after 3 weeks vs untreated controls.
Excerpt: as §3, §2

The subject of test [13] is Setaria viridis. Put plainly: Post-emergence herbicidal action, SETVI. The note with it: 80 g/ha, Table C. On the procedure: as §1, §2
Test [14] relates to ECHCG. Briefly: Post-emergence herbicidal action, ECHCG. As to conditions: 80 g/ha, Table C. On the procedure:
as §1

The subject of test [15] is Avena fatua. Put plainly: Pre-emergence herbicidal action, AVEFA. As to conditions: dosage 320 g/ha, scored visually after 3 weeks vs untreated controls.
Excerpt: as §3, §2

In test [16] the test system is Alopecurus myosuroides. Briefly: Pre-emergence herbicidal action, ALOMY. As to conditions: dosage 320 g/ha, scored visually after 3 weeks vs untreated controls.
Excerpt: as §3, §2

Consider `Cn1nnnc1NC(=O)c1ccc(C(F)F)c(S(C)(=O)=O)c1I` [Example 1-75], for which the “Herbicidal activity STEME” value in test [1] and in test [7] was 100% throughout. For the same compound, the “herbicidal activity AMARE” value in test [2] and in [5] was 90% each time. The “Herbicidal activity PHBPU” value in test [3] worked out at 80%. The “herbicidal activity ABUTH” value in [4] was determined as 90%. Besides, in test [6], the “herbicidal activity MATIN” value came out at 90%. The “herbicidal activity VIOTR” value in test [8] is 90%. In test [9], the “herbicidal activity SETVI” value is listed as 100%.
`CSc1c(C(F)F)ccc(C(=O)Nc2ncnn2C)c1C1CC1` [Example 4-25]: the “Herbicidal activity STEME” value came to 100% in test [1] and 90% in test [7]. Moreover, the figures for the “herbicidal activity VIOTR” value in test [10] and in [8] were 90% and 100%, respectively. The “herbicidal activity AMARE” value in [2] and in [5] was 90% each time. Further, in [3], the “Herbicidal activity PHBPU” value worked out at 80%. Moreover, in test [4], the “herbicidal activity ABUTH” value turned out to be 90%. Moreover, in test [6], the “herbicidal activity MATIN” value is given as 90%.
`CCSc1c(C(F)F)ccc(C(=O)Nc2ncnn2C)c1C1CC1` [Example 4-28]: the “Herbicidal activity STEME” value was determined as 100% in [1] and 90% in test [7]. Further, the “herbicidal activity VIOTR” value in test [10] is given as 80%; in [8], 100%. The “herbicidal activity AMARE” value in [2] is 80%; in test [5], 90%. The “Herbicidal activity PHBPU” value in test [3] was 90%. In addition, in [4], the “herbicidal activity ABUTH” value turned out to be 100%. Further, in test [6], the “herbicidal activity MATIN” value is on record as 90%.
Take `CC[S+]([O-])c1c(C(F)F)ccc(C(=O)Nc2ncnn2C)c1C1CC1` (stereo not drawn) [Example 4-29]: the “Herbicidal activity STEME” value in test [1] and in test [7] was 90% each time. In addition, the figures for the “herbicidal activity VIOTR” value in [10] and in [8] were 90% and 100%, respectively. Further, the results for the “herbicidal activity AMARE” value in test [2] and in test [5] were 80% and 90%, respectively. Moreover, in test [3], the “Herbicidal activity PHBPU” value is 90%. For the same compound, the results for the “herbicidal activity ABUTH” value in [4] and in test [11] were 100% and 80%, respectively. For the same compound, the “herbicidal activity MATIN” value in test [6] is 90%.
In the case of `CCS(=O)(=O)c1c(C(F)F)ccc(C(=O)Nc2ncnn2C)c1C1CC1` [Example 4-30], the “Herbicidal activity STEME” value in test [1] and in test [7] was 90% in each case. For the same compound, the “herbicidal activity VIOTR” value in [10] is on record as 80%; in test [8] it was 90%. In addition, the “Herbicidal activity PHBPU” value in test [3] came out at 90%. In test [12], the “herbicidal activity CYPES” value is 80%. In addition, the “herbicidal activity ABUTH” value stood at 100% in test [4] and 80% in [11]. In addition, the “herbicidal activity AMARE” value in test [5] was found to be 90%. In [6], the “herbicidal activity MATIN” value stood at 100%.
For the compound `CSc1c(C(F)F)ccc(C(=O)Nc2ncnn2C)c1F` [Example 4-37], the “Herbicidal activity STEME” value in test [1] is 80%; in test [7], 100%. Also, the “herbicidal activity VIOTR” value is given as 80% in test [10] and 90% in [8]. The “herbicidal activity AMARE” value in [2] and in test [5] was 100% in each case. Moreover, the “herbicidal activity ABUTH” value turned out to be 100% in [4] and 80% in test [11]. In test [13], the “herbicidal activity SETVI” value stood at 90%. Besides, the “herbicidal activity MATIN” value in test [6] stood at 100%. For the same compound, the “Herbicidal activity ECHCG” value in [14] is on record as 80%.
Regarding `Cn1ncnc1NC(=O)c1ccc(C(F)F)c([S+](C)[O-])c1F` (stereo not drawn) [Example 4-38], in test [1], the “Herbicidal activity STEME” value was found to be 90%. For the same compound, the “herbicidal activity VIOTR” value in test [10] came out at 100%. In test [2], the “herbicidal activity AMARE” value was 90%. Further, the “Herbicidal activity PHBPU” value in [3] was determined as 90%. Moreover, the “herbicidal activity ABUTH” value in [4] and in [11] was 90% in each case. In test [14], the “Herbicidal activity ECHCG” value is 80%.
In the case of `Cn1ncnc1NC(=O)c1ccc(C(F)F)c(S(C)(=O)=O)c1F` [Example 4-39], the “Herbicidal activity STEME” value in test [1] and in [7] was 100% throughout. The “herbicidal activity VIOTR” value in [10] is 90%; in [8] it was 100%. The “herbicidal activity AMARE” value in test [2] is on record as 90%; in test [5], 100%. In test [3], the “Herbicidal activity PHBPU” value was found to be 90%. The entries for the “herbicidal activity ABUTH” value in [4] and in [11] were 100% and 90%, respectively. Further, the “herbicidal activity MATIN” value in test [6] worked out at 90%. Also, the “herbicidal activity SETVI” value in test [9] turned out to be 100%.
`CCSc1c(C(F)F)ccc(C(=O)Nc2ncnn2C)c1F` [Example 4-40]: the “Herbicidal activity STEME” value in [1] came to 90%; in [7], 100%. In addition, the “herbicidal activity VIOTR” value in [10] is recorded as 80%; in [8] it was 100%. Besides, the “herbicidal activity AMARE” value in test [2] and in test [5] was 100% each time. The “herbicidal activity CYPES” value in [12] is recorded as 100%. Besides, the “herbicidal activity ABUTH” value was found to be 100% in [4] and 80% in test [11]. The “herbicidal activity SETVI” value amounted to 90% in test [13] and 80% in test [9]. The “herbicidal activity MATIN” value in test [6] is recorded as 100%. Moreover, the “Herbicidal activity ECHCG” value in test [14] is 90%.
Turning to `Cn1ncnc1NC(=O)c1ccc(C(F)F)c(S(C)(=O)=O)c1I` [Example 4-75], the “Herbicidal activity STEME” value in test [1] worked out at 90%; in test [7], 100%. The “herbicidal activity VIOTR” value is recorded as 80% in test [10] and 90% in test [8]. Further, the “herbicidal activity AMARE” value in [2] and in test [5] was 100% throughout. For the same compound, the “Herbicidal activity PHBPU” value in test [3] is on record as 80%. Moreover, in test [12], the “herbicidal activity CYPES” value is 80%. In addition, the “herbicidal activity ABUTH” value in [4] came to 100%. The “herbicidal activity MATIN” value in [6] is on record as 100%. Besides, the “herbicidal activity SETVI” value in test [9] turned out to be 90%.
As to `CCSc1c(C(F)F)ccc(C(=O)Nc2nonc2Cl)c1C` [Example 6-4], the “Herbicidal activity STEME” value in test [1] and in [7] was 90% each time. The “herbicidal activity VIOTR” value in [10] and in test [8] was 100% each time. The “Herbicidal activity PHBPU” value in test [3] amounted to 80%. Besides, the “herbicidal activity ABUTH” value in [4] and in [11] was 90% in each case. Moreover, the “herbicidal activity SETVI” value in [13] and in [9] was 100% throughout. For the same compound, the “herbicidal activity AMARE” value in [5] was 100%. Besides, in [6], the “herbicidal activity MATIN” value is 90%. Further, in test [15], the “herbicidal activity AVEFA” value turned out to be 90%. Also, the “Herbicidal activity ECHCG” value in test [14] turned out to be 100%.
For the compound `CC[S+]([O-])c1c(C(F)F)ccc(C(=O)Nc2nonc2Cl)c1C` (stereo not drawn) [Example 6-5], the “Herbicidal activity STEME” value in [1] and in test [7] was 90% each time. The “herbicidal activity VIOTR” value in test [10] and in test [8] was 100% throughout. For the same compound, the “herbicidal activity ABUTH” value amounted to 100% in test [4] and 80% in test [11]. Besides, the entries for the “herbicidal activity SETVI” value in test [13] and in test [9] were 90% and 100%, respectively. Besides, the “herbicidal activity ALOMY” value in [16] turned out to be 90%. The “herbicidal activity AMARE” value in test [5] stood at 100%. Further, the “herbicidal activity MATIN” value in test [6] is listed as 90%. In test [15], the “herbicidal activity AVEFA” value is reported as 90%. Besides, the “Herbicidal activity ECHCG” value in [14] is 100%.
